Experiments:
Experiment in all cases: 3' UTR reporter interaction score (median-centred robust z-score of log2 firefly/Renilla activity); higher = less repression of the 3' UTR reporter
Settings in all cases: HEK293T; 48 h
BRCA2 = system: BRCA2
Outline: (§1)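 Firefly and Renilla luciferase activities were read 48 h post-transfection in HEK293T cells (10,000/well, 96-well plates). The cells had received 100 ng firefly luc2P reporter bearing the gene's 3' UTR, 20 ng Renilla pRL-TK control and 2.5 pmol miRNA mimic via DharmaFECT Duo. The interaction score, where more negative means interaction, is a per-plate robust z-score (median, median absolute deviation) of the log firefly/Renilla ratio, median-centred per miRNA and averaged over at least two independent screens.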

EZH2 = system: EZH2
Outline: as §1

FBXW7 = system: FBXW7
Outline: as §1

HRAS = system: HRAS
Outline: as §1

MYB = system: MYB
Outline: as §1

MYCN = system: MYCN
Outline: as §1

MYC = system: MYC
Outline: as §1

MYT1L = system: MYT1L
Outline: as §1

NOTCH1 = system: NOTCH1
Outline: as §1

PHF6 = system: PHF6
Outline: as §1

PHOX2B = system: PHOX2B
Outline: as §1

RB1 = system: RB1
Outline: as §1

TP53 = system: TP53
Outline: as §1

ZEB2 = system: ZEB2
Outline: as §1

Row | Sequence | 3' UTR reporter interaction score (BRCA2) | 3' UTR reporter interaction score (EZH2) | 3' UTR reporter interaction score (FBXW7) | 3' UTR reporter interaction score (HRAS) | 3' UTR reporter interaction score (MYB) | 3' UTR reporter interaction score (MYCN) | 3' UTR reporter interaction score (MYC) | 3' UTR reporter interaction score (MYT1L) | 3' UTR reporter interaction score (NOTCH1) | 3' UTR reporter interaction score (PHF6) | 3' UTR reporter interaction score (PHOX2B) | 3' UTR reporter interaction score (RB1) | 3' UTR reporter interaction score (TP53) | 3' UTR reporter interaction score (ZEB2)
1 | UCCUGUACUGAGCUGCCCCGAG | -2.39 | 0.519 | 0.155 | 0.706 | -1.33 | 0.364 | -0.142 | -1.49 | -0.221 | -0.91 | 1.42 | -2.81 | -0.164 | -2.27
2 | UCCUUCAUUCCACCGGAGUCUG | -0.488 | 0.832 | -0.512 | -1.28 | 1.93 | 0.466 | 1.16 | 1.34 | -0.263 | 0.83 | -0.547 | 0.813 | -0.464 | -2.53
3 | UCGGAUCCGUCUGAGCUUGGCU | 1.24 | 1.84 | 0.968 | 1.22 | -4.97 | 1.3 | -0.287 | -1.06 | 0.076 | -0.555 | -0.526 | -0.185 | -0.412 | 0.123
4 | UCGGGGAUCAUCAUGUCACGAG | 0.268 | -0.077 | 0.568 | -0.912 | -0.226 | -0.0751 | -1.16 | -0.88 | -0.696 | 1.52 | 0.234 | 1.06 | -0.0214 | 1.06
5 | UCGUACCGUGAGUAAUAAUGC | 0.63 | 0.753 | -0.162 | -0.495 | -2.72 | 0.512 | -0.268 | -0.417 | -1.54 | 1.63 | -1.05 | -1.12 | 0.516 | 0.34
6 | UCGUGCAUCCCUUUAGAGUGUU | 0.369 | 0.153 | 0.538 | -0.817 | -1.1 | 1.34 | -0.38 | -0.28 | -0.139 | 2.24 | -0.719 | 1.71 | -0.886 | -1.93
7 | UCGUGUCUUGUGUUGCAGCCG | -0.341 | 0.0252 | -0.364 | -0.272 | 0.669 | 0.852 | -0.116 | -0.0239 | -0.0902 | -0.112 | -0.401 | -0.468 | -0.142 | 0.403
8 | UCUACAAAGGGAAGCCCUUUCUG | 0.423 | 0.229 | -0.547 | -0.0822 | 0.56 | 0.12 | -0.127 | 0.66 | -0.427 | 0.0225 | -0.778 | 0.712 | -0.365 | -0.71
9 | UCUACAGUGCACGUGUCU | -0.808 | -0.132 | -0.208 | -0.193 | 0.507 | 0.872 | -0.224 | 0.894 | -0.268 | -1.18 | 1.13 | 0.634 | 0.119 | 0
